Entries after “also recorded” stand apart in the source; their conditions may differ.
Columns and labels:
ShHTL7 = biological target: T1, ShHTL7 (Striga hermonthica, UniProt A0A0M3PNA2); test: In vitro hydrolysis assay, ShHTL7; assay type: biochemical; settings: 10 µM substrate, 50 µg ml^−1 protein, 37 °C, HPLC
T1 sequence (A0A0M3PNA2 1-271): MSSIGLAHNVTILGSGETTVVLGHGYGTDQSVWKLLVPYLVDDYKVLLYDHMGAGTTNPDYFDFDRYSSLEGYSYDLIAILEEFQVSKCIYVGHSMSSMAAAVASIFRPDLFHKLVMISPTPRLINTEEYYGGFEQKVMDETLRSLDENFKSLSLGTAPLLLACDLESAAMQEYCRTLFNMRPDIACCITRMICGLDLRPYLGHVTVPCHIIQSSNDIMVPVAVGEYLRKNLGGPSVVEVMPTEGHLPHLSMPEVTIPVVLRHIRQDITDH
Source text: Striga hermonthica ShHTL7 cDNA was used, GenBank accession KR013127, kindly provided by Tsuyoshi Ota, The University of Tokyo, Japan. Arabidopsis D14 (AtD14) cDNA, GenBank accession AY097402, was synthesized and cloned into pUC57 (GenScript). ShHTL7 and OsD14 cDNAs were amplified by RT-PCR using the primers shown in Supplementary Table S2, digested with BamHI and XhoI, and ligated into BamHI/XhoI-digested pGEX-6P-1 expression vector (GE Healthcare). […] The plasmids were then transformed into E. coli BL21 (DE3) cells. The cells were grown in LB broth containing ampicillin ([…]), incubated at 37 °C until OD600 of 0.6 and induced with 0.1 mM isopropyl-β-D-thiogalactopyranoside at 16 °C for 16 h. Harvested cells were resuspended in lysis buffer: 50 mM Tris–HCl (pH 8.0), 200 mM NaCl, 0.5% Tween-20 and 2 mM dithiothreitol (DTT). After sonication on ice for 10 min, the lysate was centrifuged at 75 000 g for 30 min at 4 °C. Supernatant was allowed to bind to glutathione–sepharose beads (GE Healthcare) for 2 h at 4 °C, washed 3 times with buffer (50 mM Tris-HCl (pH 8.0), 200 mM NaCl, 2 mM DTT), and eluted by cleaving the GST moiety with PreScission™ Protease (GE Healthcare) at 4 °C overnight. Eluted protein was further purified by gel filtration using a HiLoad 16/60 Superdex200 prep grade column (GE Healthcare) on an AKTA prime system (GE Healthcare) in gel filtration buffer (10 mM HEPES pH 7.5, 50 mM KCl and 2 mM DTT). […] Purified protein was concentrated using an Amicon 10K filter unit (Merck Millipore) and stored at −80 °C until use. A similar expression and purification protocol was followed for OsD14 protein, except that OsD14 was eluted from glutathione resins using 0.2 mM reduced glutathione (Sigma-Aldrich) without cutting the GST tag.
The hydrolysis of GR24 and MPs by ShHTL7/OsD14 was performed in a total volume of 0.5 ml of phosphate-buffered saline containing 10 µM of substrate. Purified ShHTL7/OsD14 was added at a concentration of 50 µg ml^−1 and incubated for the indicated time at 37 °C. After adding 1-indanol (10 µl of a 2.5 mg ml^−1 solution in methanol), as internal standard, solutions were filtered and transferred to HPLC vials. […] The column was operated at 30 °C with a flow rate of 0.2 ml min^−1. Eluted compounds were detected using a diode array detector. Amounts of remaining substrates were determined by calculating corresponding peaks, in comparison with an internal standard.

S. hermonthica seeds = test: Striga hermonthica seed germination bioassay; assay type: in vivo; settings: for EC50: Striga hermonthica, concentrations 10^–5 to 10^–12 M
Experimental: Parasitic weed seeds’ (S. hermonthica and P. ramosa) germination activity was studied as described previously ([Jamil et al., 2012]). Six pre-conditioned seed discs were placed in a 90 mm Petri dish containing a filter paper ring wetted with 0.9 ml sterile MilliQ water. Then 50 μl of SL analog solution (10^–5–10^–12 M) was applied on each of the six discs, for each concentration. GR24 solutions with equal concentrations and sterile MilliQ water were included as a positive and negative control, respectively. After application, seeds of S. hermonthica and P. ramosa were incubated in dark at 30 °C for 2 d and at 25 °C for 4 d, respectively. Germination (seeds with radicle emerging through the seed coat) was scored under a binocular microscope, and germination rate (%) was calculated. Statistical analyses were carried out using the statistical software package R (version 3.2.2). Dose–response curves and half-maximum effective concentrations (EC50) were calculated to determine optimum amount of MPs. The synthetic strigolactone analog GR24 was used as reference to estimate efficacy of selected compounds. EC50 and estimated response were calculated using the drc package (https://cran.r-project.org/web/packages/drc/) with a four parameter logistic curve (dose–response curve) ([Ritz and Streibig, 2005]).

rice d10 mutant = test: Rice micro tillering bioassay, d10 mutant; assay type: in vivo; settings: for EC50: Oryza sativa, read-out: EC50 for tillering inhibition of the rice d10 mutant
Experimental: Rice seeds (WT, d3, d10) were surface-sterilized by washing with 70% ethanol for 1 min and then with 2.5% sodium hypochlorite for 15 min. Seeds were then rinsed thoroughly with sterile MilliQ water and incubated in water for 2 d at 30 °C in the dark. Pre-germinated seeds were transferred to filter papers containing half-strength MS medium in 90 mm Petri dishes and incubated at 30 °C under fluorescent white light (130–180 μmol m^−2 s^−1) for 1 week. Seven-day-old seedlings were transferred to 50 ml falcon tubes (one seedling per tube) containing modified half-strength Hoagland nutrient solution and grown in greenhouse. Plants were treated with MPs at 2.5 μM to 2.5 × 10^–7 μM, using GR24 as positive control. The compounds were applied six times, twice a week. Number of tillers per plant, plant height and fresh biomass were measured at final harvest.
Statistical analyses were carried out using the statistical software package R (version 3.2.2). Dose–response curves and half-maximum effective concentrations (EC50) were calculated to determine optimum amount of MPs. The synthetic strigolactone analog GR24 was used as reference to estimate efficacy of selected compounds. EC50 and estimated response were calculated using the drc package (https://cran.r-project.org/web/packages/drc/) with a four parameter logistic curve (dose–response curve) ([Ritz and Streibig, 2005]).

[1] = Chemical stability in aqueous solution (UHPLC); assay type: physicochemical; settings: aqueous solution pH 6.8, 21 °C, 50 μg ml^−1, monitored at 24 h intervals up to 3 weeks
Experimental: Aqueous solutions of MPs (50 μg ml^−1; pH 6.8) were incubated at 21 °C in amber HPLC vials (adapted from [de Saint Germain et al., 2016]). For sample preparation, 50 μl of an acetone solution (1 mg ml^−1) was diluted to the final concentration with methanol (425 μl), water (500 μl) and 25 μl of 1-indanol (1.0 mg ml^−1 solution in acetone) as internal standard. […] Compounds eluted from the column were detected with a diode array detector. The relative quantity of remaining (non-degraded) product was determined by comparison with the internal standard. Stability was monitored at 24 h intervals up to 3 weeks.

| SMILES | hydrolysis rate by ShHTL7 (rank order) (ShHTL7) | EC50 (S. hermonthica seeds) | number of tillers per plant, d10 mutant (rice d10 mutant; 2.5 μM, hydroponic culture, Mock four tillers per plant) | EC50 (rice d10 mutant) | S. hermonthica germination rate (S. hermonthica seeds; 1.0 μM) | Striga germination activity, times weaker than GR24 (S. hermonthica seeds; from EC50 values) | stability in comparison with GR24 [1] | growth, senescence symptoms and biomass of rice seedlings (rice d10 mutant; 2.5 μM) | germination activity, order among the chlorophenyl compounds (S. hermonthica seeds; species not given) |
| --- | --- | --- | --- | --- | --- | --- | --- | --- | --- |
| CC1=CC(OC=C2C(=O)OC3c4ccccc4CC23)OC1=O (stereo not shown) [GR24, reference compound] | highest hydrolysis rates with MP1, followed by MP7, GR24, and finally MP3 | 0.091 nM | one | 48.3 nM |  |  |  |  |  |
| COC(=O)/C(=C/OC1C=C(C)C(=O)O1)c1ccc([N+](=O)[O-])cc1 (stereo not shown) [MP1, (E)-methyl 3-(4-methyl-5-oxo-2,5-dihydrofuran-2-yloxy)-2-(4-nitrophenyl)acrylate] | highest hydrolysis rates with MP1, followed by MP7, GR24, and finally MP3 | 1.5 nM |  | 242 nM | 75% | around 17 times | slightly less stable than GR24 |  |  |
| COC(=O)/C(=C/OC1C=C(C)C(=O)O1)c1ccccc1 (stereo not shown) [MP3, (E)-methyl 3-(4-methyl-5-oxo-2,5-dihydrofuran-2-yloxy)-2-phenylacrylate] | highest hydrolysis rates with MP1, followed by MP7, GR24, and finally MP3 | 87 nM |  | 2.98 nM |  |  | more stable than GR24 | stunted the growth and caused senescence symptoms; also recorded: growth retardation and senescence |  |
| COC(=O)/C(=C/OC1C=C(C)C(=O)O1)c1ccc(Cl)cc1 (stereo not shown) [MP7] | highest hydrolysis rates with MP1, followed by MP7, GR24, and finally MP3 |  |  | 25.4 nM |  |  | more stable than GR24 |  | highest germination activity with MP7 (Cl in para position) followed by MP9 (ortho position) and MP8 (meta position) |

Source: article PMC5913645, “Methyl phenlactonoates are efficient strigolactone analogs with simple structure” (Journal of Experimental Botany, 2017)
